We go through 22 compounds from US9822138B2, “Antiviral beta-amino acid ester phosphodiamide compounds” (Merck Sharp & Dohme Corp., priority 2015, dated 2017).

As a reminder, the IC50 is the concentration that inhibits the measured activity by half.

One data set deals with HIV-1 (H9/IIIB strain). In words: microbe, parasite or virus in culture. Type of data set: cell-based. The conditions noted are these: MT4-GFP cells infected with HIV-1 H9/IIIB, inhibition of reproductive ratio R0. As to the method:
Assessing Antiviral Potency in a Multiple Round HIV-1 Infection Assay (Viking Assay)
The antiviral activity of the tenofovir prodrugs of the Examples herein was assessed in an assay that measures the rate of replication of HIV in cell culture, termed the Viking assay (Viral KINetics in Green cells) and performed as follows. HIV-1 replication was monitored using MT4-gag-GFP clone D3 (hereafter designated MT4-GFP), which are MT-4 cells modified to harbor a GFP reporter gene, the expression of which is dependent on the HIV-1 expressed proteins tat and rev. Productive infection of an MT4-GFP cell with HIV-1 results in GFP expression approximately 24 h post-infection. MT4-GFP cells were maintained at 37° C./5% CO2/90% relative humidity in RPMI 1640 supplemented with 10% fetal bovine serum, 100 U/ml penicillin/streptomycin, and 400 μg/ml G418 to maintain the reporter gene. For infections, MT4-GFP cells were placed in the same medium lacking G418 and infected overnight with HIV-1 (H9/IIIB strain) virus at an approximate multiplicity of infection of 0.01 in the same incubation conditions. Cells were then washed and re-suspended in either RPMI 1640 supplemented with 10% or 50% normal human serum (NHS) at 1.6×10^5 cells/mL (10% NHS or 50% NHS, respectively). Compound plates were prepared by dispensing compounds dissolved in DMSO into wells of 384 well poly-D-lysine-coated plates (0.2 μl/well) using an ECHO acoustic dispenser. Each compound was tested in a 10-point serial 3-fold dilution (typical final concentrations: 8.4 μM-0.42 nM). Controls included no inhibitor (DMSO only) and a combination of three antiviral agents (efavirenz, indinavir, an in-house integrase strand transfer inhibitor at final concentrations of 4 μM each). Cells were added ([…]) to compound plates and the infected cells were maintained at 37° C./5% CO2/90% relative humidity.
Infected cells were quantified at two time points, ˜48 h and ˜72 h post-infection, by counting the number of green cells in each well using an Acumen eX3 scanner. […] Inhibition of R0 is calculated for each well, and IC50s determined by non-linear 4-parameter curve fitting.

A short description of data set [1]: Prodrug stability assay in bio-relevant media (FaSSIF with pancreatin; GI tract stability). The conditions noted are these: parent prodrug area at 5 h divided by area at 0 h; 37° C.; 0.5 mg/mL pancreatin in FaSSIF. Type of data set: in vitro ADME. As to the method:
Prodrug Stability Assay in Bio-Relevant Media
The following assay was employed to evaluate the stability of the prodrugs in simulated gastrointestinal tract conditions. Preparation of fasted state simulated intestinal fluid (FaSSIF) using Phares SIF Powder was carried out according to protocols from Phare Drug Delivery AG (Baselland, Switzerland). For sample preparation, 10 μL stock solutions (10 mM) of prodrug substance in DMSO was added to 990 μL of 0.5 mg/mL Pancreatin solution (Fisher CAS#8049-47-6) in FaSSIF. Two samples were prepared for each compound at initial. If the sample was clear solution at the beginning, ran one sample directly as initial by HPLC; if the sample was not clear at starting, diluted the sample by 100% ACN. Put the other sample under 37° C. and observed the sample at 5 h time-point. At 5 h time point, if the sample was clear solution then performed HPLC analysis directly; if it was not clear solution, diluted the sample by 100% ACN and assayed by HPLC. All the samples were vortexed for 3 min and observed before injection. For the diluted samples, the area will be multiplied by a factor when data analysis. The analysis was carried out with an Agilent 1100 series HPLC with autosampler. The column was usually a Poroshell 120 EC-C18, 4.6×50 mm, 2.7 μm. The flow rate was 1.8 mL/min, and the injection volume was 5 or 10 μL. UV detection was in the range 210-400 nm. The mobile phase consisted of solvent A (water plus 10 mM tetrabutylammonium bromide) and solvent B (acetonitrile) with a gradient of 90% solvent A at 0 min changing to 95% solvent B over 6 min, maintained for 1.5 min, then reverting to 90% solvent A over 1.6 min. The area of the parent in prodrug at 5 h time point was divided by the area of the parent in prodrug at 0 h time point, to generate the % claimed parent ratio, which are summarized in Table 5 for GI Tract stability.

Where [2] appears, read: Human immunodeficiency virus 1, 10% normal human serum, read-out: Viking, IC50 (10% NHS).
Setting [3] is: Human immunodeficiency virus 1, 50% normal human serum, read-out: Viking, IC50 (50% NHS).
Setting [4] is: 10% normal human serum, read-out: Viking, IC50 (10% NHS).
Setting [5] is: 50% normal human serum, read-out: Viking, IC50 (50% NHS).
The mark [6] stands for this setting: Human immunodeficiency virus 1, IIIB, 10% normal human serum, read-out: Viking, IC50 (10% NHS).
[7] abbreviates: Human immunodeficiency virus 1, IIIB, 50% normal human serum, read-out: Viking, IC50 (50% NHS).

Like-named read-outs stand apart in the source and are kept apart here.

Take `CC(C)OC(=O)[C@H](C)NP(=O)(CO[C@H](C)Cn1cnc2c(N)ncnc21)NC[C@H](C)C(=O)OC(C)C` (single isomer, unassigned) [Example 6A]: the IC50 amounted to 20 nM in the data set on HIV-1 (H9/IIIB strain) (setting [2]) and 59.3 nM in the data set on HIV-1 (H9/IIIB strain) (setting [3]). For the same compound, in data set [1], the “GI Tract stability” value stood at 99.5%.
Taken in the same sequence, the figures for `CC(C)OC(=O)CCNP(=O)(CO[C@H](C)Cn1cnc2c(N)ncnc21)N[C@@H](C)C(=O)OC(C)C` (single isomer, unassigned) [Example 7A] were 26.4 nM, 44.1 nM and 98.7%.
Turning to `CC(C)OC(=O)C[C@H](C)NP(=O)(CO[C@H](C)Cn1cnc2c(N)ncnc21)N[C@@H](C)C(=O)OC(C)C` (single isomer, unassigned) [Example 8A], the IC50 in the data set with HIV-1 (H9/IIIB strain) (setting [4]) is 26.5 nM; with HIV-1 (H9/IIIB strain) (setting [5]), 38.2 nM. Also, in data set [1], the “GI Tract stability” value stood at 89.5%.
`CC(C)OC(=O)C[C@@H](C)NP(=O)(CO[C@H](C)Cn1cnc2c(N)ncnc21)N[C@@H](C)C(=O)OC(C)C` (single isomer, unassigned) [Example 9A]: the IC50 in the data set with HIV-1 (H9/IIIB strain) (setting [4]) was 25.3 nM; in the data set with HIV-1 (H9/IIIB strain) (setting [5]) it was 66.7 nM. The “GI Tract stability” value in data set [1] is listed as 99.6%.
Taken in the same sequence, the figures for `CC(C)OC(=O)[C@H](C)CNP(=O)(CO[C@H](C)Cn1cnc2c(N)ncnc21)N[C@@H](C)C(=O)OC(C)C` (single isomer, unassigned) [Example 10A] were 10.6 nM, 97.2 nM and 54.8%.
For `CC(C)OC(=O)[C@@H](C)CNP(=O)(CO[C@H](C)Cn1cnc2c(N)ncnc21)N[C@@H](C)C(=O)OC1CCCC1` (single isomer, unassigned) [Example 11B], the IC50 with HIV-1 (H9/IIIB strain) (setting [4]) came to 20.9 nM; in the data set on HIV-1 (H9/IIIB strain) (setting [5]), 68.4 nM. In addition, the “GI Tract stability” value in data set [1] is given as 76.4%.
On to `CC(C)OC(=O)[C@@H](C)CNP(=O)(CO[C@H](C)Cn1cnc2c(N)ncnc21)N[C@@H](C)C(=O)OC1CCC1` (single isomer, unassigned) [Example 12B], for which the IC50 worked out at 20.9 nM in the data set on HIV-1 (H9/IIIB strain) (setting [4]) and 63.2 nM in the data set on HIV-1 (H9/IIIB strain) (setting [5]). Moreover, the “GI Tract stability” value in data set [1] stood at 37.7%.
In the case of `CC(C)OC(=O)[C@@H](C)CNP(=O)(CO[C@H](C)Cn1cnc2c(N)ncnc21)N[C@@H](C)C(=O)OC1CCCCC1` (single isomer, unassigned) [Example 13A], the values for the IC50 in the data set on HIV-1 (H9/IIIB strain) (setting [4]) and in the data set with HIV-1 (H9/IIIB strain) (setting [5]) were 8.7 nM and 56.4 nM, respectively. In addition, the “GI Tract stability” value in data set [1] came to 38.7%.
On to `CC(C)COC(=O)[C@H](C)NP(=O)(CO[C@H](C)Cn1cnc2c(N)ncnc21)NC[C@H](C)C(=O)OC(C)C` (single isomer, unassigned) [Example 14A], for which the IC50 in the data set on HIV-1 (H9/IIIB strain) (setting [6]) came to 16.6 nM; in the data set with HIV-1 (H9/IIIB strain) (setting [7]), 70.2 nM. In data set [1], the “GI Tract stability” value amounted to 38.3%.
For `CC(C)COC(=O)[C@H](C)NP(=O)(CO[C@H](C)Cn1cnc2c(N)ncnc21)NC[C@H](C)C(=O)OC(C)C` (single isomer, unassigned) [Example 14B], the results for the IC50 with HIV-1 (H9/IIIB strain) (setting [4]) and with HIV-1 (H9/IIIB strain) (setting [5]) were 15.7 nM and 51.6 nM, respectively. Moreover, the “GI Tract stability” value in data set [1] came out at 60.6%.
Taken in the same sequence, the figures for `CCCCOC(=O)[C@H](C)NP(=O)(CO[C@H](C)Cn1cnc2c(N)ncnc21)NC[C@H](C)C(=O)OC(C)C` (single isomer, unassigned) [Example 15B] were 11.7 nM, 79.4 nM and 65.8%.
As to `CCCCCOC(=O)[C@H](C)NP(=O)(CO[C@H](C)Cn1cnc2c(N)ncnc21)NC[C@H](C)C(=O)OC(C)C` (single isomer, unassigned) [Example 16A], the IC50 in the data set on HIV-1 (H9/IIIB strain) (setting [6]) amounted to 6.1 nM; in the data set on HIV-1 (H9/IIIB strain) (setting [7]) it was 18.6 nM. In data set [1], the “GI Tract stability” value came to 12.7%.
For `CCCCCOC(=O)[C@H](C)NP(=O)(CO[C@H](C)Cn1cnc2c(N)ncnc21)NC[C@H](C)C(=O)OC(C)C` (single isomer, unassigned) [Example 16B], the IC50 in the data set on HIV-1 (H9/IIIB strain) (setting [4]) was 7.3 nM; in the data set on HIV-1 (H9/IIIB strain) (setting [5]), 28.3 nM. In addition, the “GI Tract stability” value in data set [1] was 56.2%.
Taken in the same sequence, the figures for `CCCCCCCOC(=O)[C@H](C)NP(=O)(CO[C@H](C)Cn1cnc2c(N)ncnc21)NC[C@H](C)C(=O)OC(C)C` (single isomer, unassigned) [Example 17A] were 6.5 nM, 43 nM and 30.5%.
The like results for `CCCCCCCOC(=O)[C@H](C)NP(=O)(CO[C@H](C)Cn1cnc2c(N)ncnc21)NC[C@H](C)C(=O)OC(C)C` (single isomer, unassigned) [Example 17B] were, in that order, 2.2 nM, 12 nM and 0%.
For `CC(C)OC(=O)C[C@@H](C)NP(=O)(CO[C@H](C)Cn1cnc2c(N)ncnc21)N[C@H](C)C(=O)OC1CCC1` (single isomer, unassigned) [Example 18A], the IC50 in the data set on HIV-1 (H9/IIIB strain) (setting [2]) came to 65 nM; in the data set on HIV-1 (H9/IIIB strain) (setting [3]) it was 134 nM. In addition, in data set [1], the “GI Tract stability” value is recorded as 99.2%.
Consider `CC(C)OC(=O)C[C@H](C)NP(=O)(CO[C@H](C)Cn1cnc2c(N)ncnc21)N[C@H](C)C(=O)OC1CCC1` (single isomer, unassigned) [Example 19A], for which the IC50 with HIV-1 (H9/IIIB strain) (setting [4]) was determined as 51.2 nM; in the data set with HIV-1 (H9/IIIB strain) (setting [5]), 195 nM. Further, the “GI Tract stability” value in data set [1] is reported as 100%.
The like results for `CC(C)OC(=O)[C@@H](C)CNP(=O)(CO[C@H](C)Cn1cnc2c(N)ncnc21)N[C@H](C)C(=O)OC1CCC1` (single isomer, unassigned) [Example 20B] were, in that order, 112 nM, 432 nM and 99.3%.
The like results for `CC(C)OC(=O)[C@@H](C)CNP(=O)(CO[C@H](C)Cn1cnc2c(N)ncnc21)N[C@H](C)C(=O)OC1CCCC1` (single isomer, unassigned) [Example 22B] were, in that order, 83.8 nM, 291 nM and 99.2%.
Taken in the same sequence, the figures for `CC(C)OC(=O)CCNP(=O)(CO[C@H](C)Cn1cnc2c(N)ncnc21)N[C@H](C)C(=O)OC1CCC1` (single isomer, unassigned) [Example 23B] were 121 nM, 488 nM and 101%.
Consider `CCCCCOC(=O)C(C)(C)N[P@](=O)(CO[C@H](C)Cn1cnc2c(N)ncnc21)N[C@@H](CC(=O)OC(C)C)C(C)C` (single isomer, unassigned) [Example 24A], for which the IC50 was 0.8 nM in the data set on HIV-1 (H9/IIIB strain) (setting [2]) and 4.4 nM in the data set on HIV-1 (H9/IIIB strain) (setting [3]). In addition, in data set [1], the “GI Tract stability” value stood at 76%.
With `CC(C)OC(=O)C[C@H](N[P@@](=O)(CO[C@H](C)Cn1cnc2c(N)ncnc21)NC(C)(C)C(=O)OC(C)C)C(C)C` (single isomer, unassigned) [Example 25A], the IC50 in the data set with HIV-1 (H9/IIIB strain) (setting [2]) worked out at 4.7 nM; in the data set on HIV-1 (H9/IIIB strain) (setting [3]), 12 nM. Besides, the “GI Tract stability” value in data set [1] amounted to 99.0%.
